# According to patent US11273142B2, “Treatment for tumors driven by metabolic dysfunction” (SynDevRx, Inc., priority 2016, dated 2022):
# Read-outs that look alike come from different tables or passages of the source.
# What was measured:
# [1] = every fourth day schedule; limited by confusion and insomnia; cited from earlier work
# [2] = cited from earlier work
# [3] = Adipose tissue mass in mice bearing B16F10 melanoma; type: in vivo, C57BL/6 male mice; conditions: 2 mg/kg
# Experimental: (§1) C57BL/6 male mice were ad libitum fed TD.06414 a high fat diet (HFD) composed of 60% Kcal from fat (DIO) for 12-14 weeks, until average body weight of the obese mice was >40 g. Age-matched C57Bl/6 male mice were maintained on a normal rodent diet (10% fat, low-fat diet, LFD) for 12-14 weeks. The study was initiated by injecting 2×10^5 B16F10 melanoma cells into the flank of both lean and obese animals.
# (§2) Treatment was via subcutaneous, intra-scapular injection at 5 ml/kg every four days (compound 1) or every 2 days (compound 4) over a 17 day period at the doses and on the schedule shown in Table 2.
# [4] = SD rats; 5 mg/kg/day (Kim et al.); cited from earlier work
# [5] = Body weight of B16F10 tumor-bearing obese and lean mice; type: in vivo, C57BL/6 male mice; conditions: 2 mg/kg SC Q2D
# Experimental: as §1
# as §2, with “The mice were treated with 5% mannitol/water (vehicle control), Compound 1 or Compound 4 once tumors had reached >100 mm^3. Treatment” for “Treatment”
# B16F10 melanoma [6] = assay: B16F10 melanoma tumor growth in obese (DIO) and lean mice; type: in vivo, C57BL/6 male mice; conditions: 2 mg/kg SC Q2D
# Text: The study would compare weight changes in both obese and lean animal groups; measure biologic changes in hematology parameters; and compare conjugate molecules of the present disclosure against related small molecules for efficacy.
# as §1
# as §2, with “The mice were treated with 5% mannitol/water (vehicle control), Compound 1 or Compound 4 once tumors had reached >100 mm^3. Treatment” for “Treatment”
# B16F10 melanoma [7] = assay: Metastatic lung lesions in B16F10 melanoma/DIO mice; type: in vivo, C57BL/6 male mice; conditions: Obese Mice; 2 mg/kg
# Experimental: as §1
# as §2, with “The mice were treated with 5% mannitol/water (vehicle control), Compound 1 or Compound 4 once tumors had reached >100 mm^3. Treatment” for “Treatment”
# NOAEL in rat = conditions: in vivo, after 3 mg/kg COMPOUND 1
# NOAEL in dog = conditions: in vivo, after 0.5 mg/kg COMPOUND 1
# CYP3A 4 & 5 = assay: CYP3A4/5 substrate status; type: in vitro ADME
# [8] = in combination with paclitaxel; dosed three times per week; cited from earlier work
compound,measurement,setting,value
COC1C(OC(=O)/C=C/c2ccc(OCCN(C)C)cc2)CC[C@]2(CO2)C1[C@@]1(C)O[C@@H]1CC=C(C)C (stereo partly drawn) [Compound 4],MTD,[1],15 mg/m2/day
same,body weight effect,"[2]; C57BL/6J mice, 5 mg/kg/day (Kim et al.)",weight loss
same,body weight effect,"[2]; DIO mice, dosed at 1 mg/kg (Hughes et al.)",efficacious in eliciting weight loss
same,"Tissue Weight, Epididymal Fat",[3]; Lean Mice,0.134 g
same,"Tissue Weight, Inguinal Fat",[3]; Lean Mice,0.208 g
same,"Tissue Weight, Retroperitoneal Fat",[3]; Lean Mice,0.029 g
same,"Tissue Weight, Epididymal Fat",[3]; Obese Mice,0.424 g
same,"Tissue Weight, Inguinal Fat",[3]; Obese Mice,0.416 g
same,"Tissue Weight, Retroperitoneal Fat",[3]; Obese Mice,0.142 g
same,body weight effect,[4],weight loss
same,effect on body weight,[5]; lean mice,no effect on body weight
same,change in body weight,[5]; obese mice,−7.9%
same,effect on tumor growth,B16F10 melanoma [6]; lean mice,no effect on tumor growth
same,inhibition of growth of tumors,B16F10 melanoma [6]; obese mice,28%
same,"number of metastatic lung lesions, mean +/- SEM",B16F10 melanoma [7],2.4+/−0.8 lesions/mouse
COC1C(OC(=O)N[C@H]2CC[C@H](N)CC2)CC[C@]2(CO2)C1[C@@]1(C)O[C@@H]1CC=C(C)C (stereo partly drawn) [Compound 5],AUC,NOAEL in rat,23.3 ng·h/mL
same,Cmax,NOAEL in rat,1.5 ng/mL
same,AUC,NOAEL in dog,20.7 ng·h/mL
same,Cmax,NOAEL in dog,0.4 ng/mL
same,CYP3A 4 & 5 substrate,CYP3A 4 & 5,substrate
"CO[C@@H]1[C@H](OC(=O)NC(=O)CCl)CC[C@]2(CO2)[C@H]1[C@@]1(C)O[C@@H]1CC=C(C)C [TNP-470, chloroacetylcarbamoylfumagillol]",MTD,[8],60 mg/m2
same,obesity prevention,"[2]; mice, 15 or 20 mg/kg every other day (Brakenhielm)",prevention of obesity
same,body weight effect,"[2]; ob/ob mice, daily doses 2.5 mg/kg to 10 mg/kg (Rupnick et al.)",weight loss
CO[C@@H]1[C@H](OC(=O)/C=C/C=C/C=C/C=C/C(=O)O)CC[C@]2(CO2)[C@H]1[C@@]1(C)O[C@@H]1CC=C(C)C [fumagillin],body weight effect,"[2]; C57BL/6 mice, oral 1 mg/kg daily (Lijnen et al.)",weight loss
